Literature values, collected in US7947285B2, “Methods for preventing post endoscopic retrograde cholangiopancreatography pancreatitis” (priority 2003, dated 2011).

Tests used:
[1] = tested on: post-ERCP pancreatitis; settings: high-risk patients; two large controlled trials; cited from earlier work
[2] = tested on: post-ERCP pancreatitis; settings: cited from earlier work
[3] = tested on: post-ERCP pancreatitis; settings: patients without pancreas divisum; retrospective review; cited from earlier work
[4] = tested on: post-ERCP pancreatitis; settings: prophylaxis; meta-analysis of 28 clinical trials; cited from earlier work

| Molecule | preventing post-ERCP pancreatitis [1] | effect on clinical course of post-ERCP pancreatitis ([2]; human, in vivo) | effect on hyperamylasemia ([2]; post-ERCP) | incidence of post-ERCP pancreatitis [3] | reducing the frequency of post-ERCP pancreatitis [4] |
| --- | --- | --- | --- | --- | --- |
| C[C@@H](O)[C@@H]1NC(=O)[C@H](CCCCN)NC(=O)[C@@H](Cc2c[nH]c3ccccc23)NC(=O)[C@H](Cc2ccccc2)NC(=O)[C@@H](NC(=O)[C@H](N)Cc2ccccc2)CSSC[C@@H](C(=O)N[C@H](CO)[C@@H](C)O)NC1=O [octreotide] | ineffective | has not been show to alter the clinical course | reduces hyperamylasemia | – | – |
| secretin | – | – | – | might decrease the incidence | – |
| CCOC(=O)c1ccc(OC(=O)CCCCCNC(=N)N)cc1 [gabexate] | ineffective | – | – | – | effective |
